Reference: ChEMBL document CHEMBL5247631, “Ferroptosis-related small-molecule compounds in cancer therapy: Strategies and applications” (Eur J Med Chem, 2022)

How the values were obtained:
[1] = Cytotoxicity against human BJeLR cells overexpress oncogenic RAS assessed as induction of cell death; assay type: functional, cell-based
[2] = test system: DLD-1; assay: Antiproliferative activity against human DLD-1 cells assessed as reduction in cell viability incubated for 48 hrs by MTT assay; assay type: functional, cell-based; conditions: DLD-1, 48 h
[3] = test system: HCT-116; assay: Antiproliferative activity against human HCT-116 cells assessed as reduction in cell viability incubated for 48 hrs by MTT assay; assay type: functional, cell-based; conditions: HCT-116, 48 h
[4] = Induction of ferroptosis in human BJeLR cells assessed as inhibition of (cystine-glutamate antiporter) system Xc- mediated cystine transport; assay type: functional, cell-based; conditions: bjelr cell
[5] = Anticancer activity against human BJeLR cells assessed as reduction in cell viability incubated for 24 hrs by CellTiter-Glo luminescent assay; assay type: functional, cell-based
[6] = Anticancer activity against human OCI-Ly8 cells assessed as reduction in cell viability incubated for 24 hrs by CellTiter-Glo luminescent assay; assay type: functional, cell-based; conditions: OCI-Ly8, 24 h
[7] = test system: DOHH-2; assay: Anticancer activity against human DOHH-2 cells assessed as reduction in cell viability incubated for 24 hrs by CellTiter-Glo luminescent assay; assay type: functional, cell-based; conditions: DOHH-2, 24 h
[8] = test system: SU-DHL-5; assay: Anticancer activity against human SU-DHL-5 cells assessed as reduction in cell viability incubated for 24 hrs by CellTiter-Glo luminescent assay; assay type: functional, cell-based; conditions: SU-DHL-5, 24 h
[9] = test system: SU-DHL-6; assay: Anticancer activity against human SU-DHL-6 cells assessed as reduction in cell viability incubated for 24 hrs by CellTiter-Glo luminescent assay; assay type: functional, cell-based; conditions: SU-DHL-6, 24 h
[10] = test system: SU-DHL10; assay: Anticancer activity against human SU-DHL-10 cells assessed as reduction in cell viability incubated for 24 hrs by CellTiter-Glo luminescent assay; assay type: functional, cell-based; conditions: SU-DHL10, 24 h
[11] = test system: SU-DHL-16; assay: Anticancer activity against human SU-DHL-16 cells assessed as reduction in cell viability incubated for 24 hrs by CellTiter-Glo luminescent assay; assay type: functional, cell-based; conditions: SU-DHL-16, 24 h
[12] = test system: SU-DHL-2; assay: Anticancer activity against human SUDHL2 cells assessed as reduction in cell viability incubated for 24 hrs by CellTiter-Glo luminescent assay; assay type: functional, cell-based; conditions: SU-DHL-2, 24 h
[13] = test system: G-361; assay: Antiproliferative activity against human G-361 cells harboring BRAF V600E mutant assessed as cell viability incubated for 72 hrs by crystal violet staining based assay; assay type: functional; conditions: G-361, 72 h
[14] = test system: SK-MEL-28; assay: Antiproliferative activity against human SK-MEL-28 cells harboring BRAF V600E mutant assessed as cell viability incubated for 72 hrs by crystal violet staining based assay; assay type: functional; conditions: SK-MEL-28, 72 h
[15] = Anticancer activity against human PHMLER expressing CD24low phenotype cells assessed as reduction in cell viability incubated for 72 hrs; assay type: functional, cell-based
[16] = test system: MDA-MB-231; assay: Antiproliferative activity against human MDA-MB-231 cells assessed as inhibition of cell viability incubated for 72 hrs by MTT assay; assay type: functional, cell-based; conditions: MDA-MB-231, 72 h
[17] = test system: HT-1080; assay: Induction of ferroptosis in human HT-1080 cells assessed as inhibition of (cystine-glutamate antiporter) system Xc- mediated cystine transport; assay type: functional, cell-based
[18] = test system: LN-229; assay: Induction of ferroptosis in human LN-229 cells assessed as GPX4 degradation; assay type: functional, cell-based
[19] = test system: U-118-MG; assay: Induction of ferroptosis in human U-118-MG cells assessed as GPX4 degradation; assay type: functional, cell-based
[20] = test system: ES-2; assay: Anticancer activity against human ES2 cells assessed as reduction in cell viability incubated for 72 hrs by Alamar Blue viability assay; assay type: functional, cell-based; conditions: ES-2, 72 h
[21] = test system: AGS; assay: Anticancer activity against human AGS cells assessed as inhibition of cell viability incubated for 24 hrs by CCK-8 assay; assay type: functional, cell-based
[22] = test system: NCI-N87; assay: Anticancer activity against human NCI-N87 cells assessed as inhibition of cell viability incubated for 24 hrs by CCK-8 assay; assay type: functional, cell-based; conditions: NCI-N87, 24 h

## O=S(=O)(c1ccc2c(c1)C(=NO)c1cc(S(=O)(=O)N3CCCCC3)ccc1-2)N1CCCCC1
[1]
  IC50: > 1000 nM

## COc1ccc2oc(=N)c(C(N)=S)cc2c1
[2]
  IC50: 50200 nM
[3]
  IC50: 44500 nM

## CC(C)Oc1ccc(CN2CCNCC2)cc1-n1c(CN2CCN(C(=O)COc3ccc(Cl)cc3)CC2)nc2ccccc2c1=O
[4]
  IC50: 900 nM

## CC(C)Oc1ccc(C(=O)Cn2ccnc2)cc1-n1c(CN2CCN(C(=O)COc3ccc(Cl)cc3)CC2)nc2ccccc2c1=O
[5]
  IC50: 3 nM
[6]
  IC50: 1 nM
[7]
  IC50: 14 nM
[8]
  IC50: 1 nM
[9]
  IC50: 1 nM
[10]
  IC50: 4 nM
[11]
  IC50: 12 nM
[12]
  IC50: 21 nM

## Cc1cc(-c2nc(-c3ccc(OC(F)(F)F)cc3)no2)nn1Cc1ccnc(N2CCN(C3CC3)CC2)c1
[13]
  IC50: 4800 nM
[14]
  IC50: 2400 nM

## C#CCN[C@@H]1C=C[C@]2(O[C@H]([C@@H](CC)C(=O)[C@@H](C)[C@@H](O)[C@H](C)[C@@H]3O[C@@H]([C@@H](CC)C(=O)O)CC[C@@H]3C)[C@@H](C)C[C@H]2C)O[C@@]12CC[C@@](C)([C@H]1CC[C@](O)(CC)[C@H](C)O1)O2
[15]
  IC50: 100 nM

## C=C1C(=O)O[C@H]2[C@H]1CC/C(COC(=O)/C=C/c1c(OC)cccc1OC)=C\CC[C@@]1(C)O[C@@H]21
[16]
  IC50: 340 nM

## COC(=O)c1ccc([C@H]2c3[nH]c4ccccc4c3C[C@H](C(=O)OC)N2C(=O)CCl)cc1
[17]
  IC50: 100 nM
[4]
  IC50: 100 nM

## C#Cc1nc(C2=C(C)[C@H](O)CC2)cs1
[17]
  IC50: 76000 nM

## O=S(=O)(NC1CCCCC1)c1ccc2c(c1)C(=NO)c1cc(S(=O)(=O)NC3CCCCC3)ccc1-2
[18]
  IC50: 4200 nM
[19]
  IC50: 2600 nM

## CC1CC[C@@]23C[C@H](O)C(=O)[C@@]2(O)[C@]1(C)[C@H](OC(=O)CCl)C[C@@H](C1=CCn2c(=O)n(-c4ccccc4)c(=O)n2C1)[C@@H]3C (stereo not given in full)
[20]
  IC50: 1600 nM

## C[C@@H]1CC[C@@]2(OC1)O[C@H]1C[C@H]3[C@@H]4CC=C5C[C@@H](O)C[C@@H](O[C@H]6O[C@H](C)[C@H](O)[C@H](O)[C@H]6O[C@@H]6O[C@@H](C)[C@H](O)[C@@H](O)[C@H]6O)[C@]5(C)[C@H]4CC[C@]3(C)[C@H]1[C@@H]2C
[21]
  IC50: 10300 nM
[22]
  IC50: 21300 nM

## CCCC[S@@](=N)(=O)CC[C@@H](N)C(=O)O
[4]
  IC50: < 10000 nM
